From a melting point compilation (Tetko et al.; mined from patent text by program, amines drawn as free bases though some values may be those of a salt) come the findings set out here.

Broadly, the melting point is the temperature, or range, at which the solid turns liquid. For `CC(=Cc1ccccc1)c1cc2c(cc1Cl)C(C)(C)CCC2(C)C`, the melting point worked out at 114 °C.

Molecule `N#CC1=CCC23OCOC2=C1c1c(C#N)cccc1OCO3` (stereo not given) came in with a melting point of 213 to 215 °C.

`O=C(Nc1ccccc1Cl)Nc1nc(=O)n(CC2CC2)cc1F` gave a melting point of 197 to 199 °C.

`COc1cc2c(c(Cl)c1Cl)CCCC2` gave a melting point of 67 to 68.5 °C.

Turning to `CCOC(=O)C(=CNc1ccc(F)cc1F)C(=O)c1c(F)c(F)c(F)c(F)c1F`, the melting point lay within 97 to 99 °C.

`Cc1cnc(C)n2c1c(CCN1CCC(NC(=O)c3ccccc3)CC1)c1ccccc12` returned a melting point of 233 to 234 °C.

Molecule `CC(=O)NC[C@H]1CN(c2ccc(-c3ncon3)c(F)c2)C(=O)O1` yielded a melting point of 197 to 199 °C.

`C[C@@H](Cc1cc(F)cc2ccoc12)NC(=O)OC(C)(C)C` showed a melting point of 120 to 121 °C.

Turning to `Cn1cncc1C(O)(c1ccc2ncccc2c1)c1ccc2nc(Cl)nc(-c3cccc(Cl)c3)c2c1` (stereo not given), the melting point is 250 °C.

Consider `Cc1ccc2nc(N)nc(N)c2c1-c1cc(C(F)(F)F)cc(C(F)(F)F)c1`, for which the melting point lay in the range of 222 to 225 °C.

Consider `Cc1ccc(Cc2cc3c(cc2/C=C/c2ccc(C(=O)O)cc2)C(C)(C)CCC3(C)C)cc1`, for which the melting point lay in the range of 216 to 217 °C.

The molecule `CC1(C)CC(=O)C2C(=NC3=C(C(=O)CC(C)(C)C3)C2c2ccc(F)c(C#N)c2)C1` (stereo not given) gave a melting point of 274 to 275 °C.

For the molecule `CC(C)c1nn(-c2ccc(C(F)(F)F)cn2)cc1CCCOc1nn(C2CCCCC2)cc1CC(=O)O`, the melting point was in the range of 116 to 117 °C.

Turning to `Cc1ccc(-c2ccc(/C=C/C(=O)O)s2)cc1`, the melting point lay within 223 to 225 °C.

The molecule `NCc1ccc(CN2CCN(c3ccccc3)CC2)cc1` showed a melting point of 68 to 70 °C.

In turn, `CCOc1cc2ncnc(Cl)c2cc1OCC` displayed a melting point of 141 to 143 °C.

Consider `C=Cn1cc(C(=O)O)c(=O)c2cc(F)c(N3CCN(C)C(C)C3)c(F)c21` (stereo not given), for which the melting point fell in the range of 178 to 179 °C.

In turn, `CCOC(=O)c1cc(OCc2ccccc2)c2ccc(Br)cc2c1` had a melting point of 105 °C.

In turn, `CC(=O)N(CCCC(=O)O)C(c1ccccc1)c1ccccc1` displayed a melting point of 173 to 174 °C.

In turn, `CCCCCCCCCCCCCCCCOCC(O)CN1CCC(C)CC1` (stereo not given) yielded a melting point of 84 to 85 °C.

In turn, `CN1CCC(NC(c2cccc([N+](=O)[O-])c2)c2nc3ccccc3[nH]2)CC1` (stereo not given) registered a melting point of 254 °C.

For the molecule `CS(=O)(=O)Nc1ccc2[nH]ccc2c1`, the melting point was in the range of 133 to 135 °C.

The molecule `CC1CC(=O)NN=C1c1ccc(C2=NNC(=O)CC2C)cc1` (stereo not given) came in with a melting point above 300 °C.

With `Cc1ccc(-c2ccc3c(c2)C=C(C(=O)Nc2ccc(CNCC4CCCCC4)cc2)CCO3)cc1`, the melting point lay within 154 to 155 °C.

Consider `CCCCNC(=S)NC(Cc1ccccc1)C(=O)Nc1c(C(C)C)cccc1C(C)C` (stereo not given), for which the melting point fell in the range of 214 to 215 °C.

With `NC(=O)C(OCc1ccc(-c2ccc(Cl)cc2)cc1)(C(F)(F)F)C(F)(F)F`, the melting point was in the range of 123 to 124 °C.

`O=C(O)C=CC(=O)c1cccs1` had a melting point of 139 to 142 °C.

In the case of `COc1cccc(C(CN(C)C)c2nnc3n2-c2ccc(Cl)cc2C(c2ccccc2)=NC3)c1` (stereo not given), the melting point fell in the range of 139 to 140 °C.

The molecule `Cc1cc(Br)cc(C#N)c1` gave a melting point of 85 to 86 °C.

For the molecule `N#Cc1ccc(N2CCCN(c3ccnc4sc(C(N)=O)c(N)c34)CC2)cc1`, the melting point lay in the range of 151 to 153 °C.

As for `CN(C)c1ccc(/C=C/c2c(F)cccc2Cl)cc1`, the melting point lay in the range of 42 to 44 °C.

For `O=S(=O)(Nc1ccc(Br)cc1)C(F)(F)F`, the melting point fell in the range of 52 to 54 °C.

In turn, `Cn1nc(-c2ccccc2)nc1-c1ccccn1` yielded a melting point of 106 to 108 °C.

Take `O=P1(NCCCl)OCCCN1CCBr` (stereo not given): the melting point was in the range of 50 to 51 °C.

`CC(C)n1cc(C(=O)O)c2ccc([N+](=O)[O-])cc21` yielded a melting point of 242 to 243 °C.

Consider `CC(O)(c1ccc(F)cc1)C1CCN(CCCC(=O)c2ccc(F)cc2)CC1` (stereo not given), for which the melting point lay in the range of 116 to 118 °C.

In turn, `OCCCc1nc(-c2ccccc2)co1` gave a melting point of 55 to 56 °C.

Consider `CC(C)CCS(=O)(=O)CC[C@H](O)[C@@H](N)CC(C)C`, for which the melting point lay in the range of 125 to 126 °C.

Take `CC(C)C(=O)NC[C@@H]1CN2C(=O)C[C@H]2O1` (racemic): the melting point is 76 to 77 °C.

In turn, `O=C(O)c1cc(O)cc2nc3c(O)cccc3nc12` returned a melting point above 300 °C.

In turn, `CC1(O)C=CC2C3CCC4=CC(=O)CCC4C3C(c3ccc(-c4ccoc4)cc3)CC21C` (stereo not given) registered a melting point of 179 °C.

In turn, `CN1CC[C@]2(c3ccccc3)CCCC[C@H]2C1` (relative stereo) had a melting point of 72 to 73 °C.

For the molecule `Cc1cc2c(C)c(O)c(O)c(C(=O)O)c2cc1Cc1ccccc1`, the melting point lay within 179 to 180 °C.

For `O=C(CCc1ccncc1)c1c(O)c2cccnc2n(-c2ccccc2)c1=O`, the melting point was in the range of 206 to 208 °C.

Molecule `C#CCOC(=O)c1ncn2c1[C@@H]1CCCN1C(=O)c1c(Cl)cccc1-2` gave a melting point of 213 to 214 °C.

`NS(=O)(=O)c1ccc(-n2nc(CCCNC(=O)NC34CC5CC(CC(C5)C3)C4)cc2-c2ccccc2)cc1` yielded a melting point of 139 to 144 °C.

`O=C(CCc1cnn2c(=O)[nH]cnc12)NCCCN1CCCC1=O`: the melting point is 180 to 181 °C.

As for `CN(C)Cc1cc(C(=O)C2CCCCC2)cc(C(C)(C)C)c1O`, the melting point was in the range of 149 to 150 °C.

Take `Nc1cc(-n2cc(C(=O)O)c(=O)c3ccc(Cl)nc32)c(F)cc1F`: the melting point is above 270 °C.

For `ON=C(c1ccccc1)c1cccc2nc(N[C@@H]3CCc4ccccc43)ccc12`, the melting point worked out at 176 °C.

Molecule `N#Cc1c(Br)c(Br)n(O)c1-c1ccc(Cl)cc1` gave a melting point of 208 to 209 °C.

The molecule `C=CCN1Cc2cc(Br)ccc2C1=O` gave a melting point of 58 to 60 °C.

Regarding `COC(=O)c1c(S(=O)(=O)NC(=O)Nc2nc(OC)cc(OC)n2)ccn1C`, the melting point was 182 to 186 °C.

On to `CCCN(C1CC(C)(C)Oc2ccc(O)cc21)S(=O)(=O)CC` (stereo not given), for which the melting point is 173 to 175 °C.

As for `C=Cc1ncc2[nH]c3cccc(OCc4ccccc4)c3c2c1COC`, the melting point lay within 183 to 185 °C.

Take `CC(C)n1nc(-c2sc(NC(=O)CNCc3ccccc3)nc2-c2ccccc2)ccc1=O`: the melting point fell in the range of 144 to 145 °C.

As for `N#CC1CC(c2c(F)cccc2F)=NC1c1ccc(-c2ccc(OC(F)(F)F)cc2)cc1` (stereo not given), the melting point amounted to 145 °C.

Turning to `CN(C)c1nc(Nc2cc(C(=O)NC3CCC3)n[nH]2)c2occc2n1`, the melting point came out at 250 °C.

`CCCCCc1ccc(NC2=NCCS2)cc1` yielded a melting point of 77 to 78 °C.

For `CC(C)N(Cc1ccc2cc(NC(=O)c3ccc(-c4ccc(Cl)cc4)cc3)ccc2c1)C(C)C`, the melting point is 246 to 250 °C.

`CN1CCC(c2c[nH]c3ccc(C(=O)c4ccc(OC(F)(F)F)cc4)cc23)CC1` had a melting point of 172 to 175 °C.

With `Cc1cc(C(=O)Nc2cccc(C3CN4CCSC4=N3)c2)n(C)n1` (stereo not given), the melting point was in the range of 163 to 164 °C.

In turn, `NC(=O)c1nnn(Cc2ccc(Cl)c(C(Cl)=C(Cl)Cl)c2)c1N` gave a melting point of 174 to 175 °C.

In the case of `N#Cc1c(N2CCN(C(=O)c3cccs3)CC2)c2cscc2n(Cc2ccc(F)cc2)c1=O`, the melting point is 238 °C.

Molecule `CCCN(c1ccc(C(=O)OCC)cc1)c1nc(=O)c2cccnc2s1` had a melting point of 155 to 157 °C.

The molecule `COC(=O)C(CO)N(Cc1ccccc1[N+](=O)[O-])S(=O)(=O)c1ccc(OC)cc1` (stereo not given) showed a melting point of 127 to 129 °C.

For the molecule `C=C(Cc1ccc(-c2ccccc2)cc1)CN1CCC(C)CC1`, the melting point came out at 53 °C.

Regarding `CC(C)(C)c1cc(CN2CC(O)C2)cc(C(C)(C)C)c1O`, the melting point lay within 139 to 142 °C.

Regarding `CC=C(C#N)c1cccnc1`, the melting point was in the range of 46 to 47 °C.

`CS(=O)(=O)NC(=O)CNC(=O)NCCCCC1CCSS1` (stereo not given) came in with a melting point of 157 to 158 °C.

In turn, `O=c1[nH]c(=S)[nH]cc1Cc1cnc2ccccc2c1` came in with a melting point of 290 to 292 °C.

For the molecule `CCCNC(=O)c1ccccc1`, the melting point is 87.6 to 88.9 °C.

On to `Oc1ccc(OCc2nnc(C3CC3)s2)cc1`, for which the melting point was 79 to 83 °C.

The molecule `CNc1nc(-c2cccc(NC(=O)c3ccc(OC)c(Cl)c3)c2)c2cc(OC)c(OC)cc2n1` showed a melting point of 130 to 132 °C.

In turn, `N#Cc1ccc(NC(=O)c2cccc(OCc3ccc(OC(F)(F)F)cc3)c2)cc1` yielded a melting point of 138 to 139 °C.

`Cc1nc(O)cc(C2(c3ccc(Cl)cc3)CCC2)n1` had a melting point of 130 to 140 °C.

`Cc1cc(C)c2nc(C3CC3)n(Cc3ncc(C4(C(=O)O)CC=CC4)cn3)c2n1` registered a melting point of 203 to 204 °C.

The molecule `COc1ccc2c(c1)c1c(n2C(=O)c2ccccc2)CCCC1C(=O)O` (stereo not given) gave a melting point of 157 to 159 °C.

Consider `Cc1oc(-c2ccco2)nc1COc1ccc(Cc2nc(-c3ccccc3)c(CCC(=O)O)o2)cc1`, for which the melting point was 74 to 76 °C.

As to `CCOc1nn2c(-c3ccccc3Br)nnc2c2ccccc12`, the melting point lay within 157 to 158 °C.

Take `N=C(NO)c1ccc(OCCCOc2c(Cl)cc(OCC=C(Cl)Cl)cc2Cl)cc1`: the melting point lay in the range of 144 to 146 °C.

`C[Si](CCSCCNC(=O)n1cc(F)c(=O)[nH]c1=O)(c1ccccc1)c1ccccc1` registered a melting point of 119 to 120 °C.

On to `CC(=O)Nc1nc(-c2ccco2)c(C(=O)c2ccccn2)s1`, for which the melting point was in the range of 216 to 217 °C.

As to `S=CN1CCC(C(c2ccccc2)c2ccccc2)CC1`, the melting point lay in the range of 152 to 154 °C.

Take `Cc1c(F)c(F)c(COC(=O)[C@@H]2[C@@H](C=O)C2(C)C)c(F)c1F`: the melting point came to 43.2 °C.

For `CCCn1cnc2cc(CN3CCN(C(c4ccccc4)c4ccccc4)CC3)ccc21`, the melting point came out at 155 °C.

As to `CC(C)(C)c1cc(O)cc(C(C)(C)C)c1C=C1SC(NCO)=NC1=O`, the melting point is 177 to 179 °C.

For the molecule `CC(=O)OCCc1ccc2sc(S(N)(=O)=O)cc2c1`, the melting point was in the range of 120 to 122 °C.

Molecule `CC1CCCN1C1CCN(c2ccc(C(=O)NC3CCOCC3)cc2)C1` (stereo not given) came in with a melting point of 180 °C.

The molecule `CCCCN(Cc1ccc(-c2ccccc2-c2nnnn2C(c2ccccc2)(c2ccccc2)c2ccccc2)cc1)c1ncncc1C(=O)OCC` gave a melting point of 142 to 144 °C.
